We go through 68 molecules from PubChem BioAssay AID1902 (Broad Institute, 2009).

Each structure is given as a SMILES string. Active and inactive are the calls of the source.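 How the source made its calls: active means EC50 no more than a set limit of log units above the highest dose; inactive means the rest.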

The assay addresses S. pyogenes SKKanGAS, kanamycin survival, BacTiterGlo, 6 h. Briefly: SKKanGAS survival reduction under kanamycin, dose response, streptokinase promoter inhibitor project, SKKanGAS strain, luminescence, dose confirmation (AID 1902).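 Further: lower survival reflects blocked streptokinase promoter driving kanamycin resistance gene.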
As for `O=C(NC(=S)NNC(=O)c1ccccc1O)c1ccco1`, the EC50 (in general, the concentration giving half of the maximal effect) is 3.06 µM. For `COc1ccc(Cl)cc1C(=O)NNC(=S)NC(=O)c1cc(-c2ccc(Cl)cc2)nc2ccccc12` the value was 0.254 µM; for `C/C(=N\NC(=S)NCC(C)(C)C)c1cc(F)cc(F)c1O`, 2.65 µM; for `Cc1ccc(-c2nc3cc(NS(=O)(=O)c4ccc(C)cc4)ccc3o2)cc1`, 6.28 µM. For `COc1ccc(/C=C/C(=O)NC(=S)NNC(=O)c2cc(OC)c(OC)c(OC)c2)cc1` the value was 1.08 µM. The figure for `Cc1cccc(C)c1NC(=S)N/N=C/c1ccc(OCCC(C)C)cc1` is 2.49 µM; for `Cc1nn(CC(O)CN2c3ccccc3Sc3ccccc32)c(C)c1Br` (stereo not drawn) it is 2.15 µM. Take `Cc1nnc(SC(C(=O)Nc2cc(Cl)cc(Cl)c2)c2ccccc2)[nH]c1=O` (stereo not drawn): the 50% effective concentration (EC50) was 10.6 µM. The figure for `CCOc1cc(CNc2ccc3c(c2)CCC3)ccc1OC` is > 15 µM (inactive); for `CCOc1c(OC(C)=O)ccc(/C=C/c2ccc3cccc(OC(C)=O)c3n2)c1[N+](=O)[O-]` it is 1.6 µM; for `Cc1ccc(Cn2c(C(CO)Nc3nc(-c4ccc(F)cc4)cs3)nc3ccccc32)cc1` (stereo not drawn) it is 3.35 µM. On to `COc1ccc(S(=O)(=O)N/N=C(/C)c2ccncc2)cc1`, for which the EC50 is > 15 µM (inactive). `Nc1nc(CN2CCN(c3ccccc3)CC2)nc(N2CCCc3ccccc32)n1`: the concentration for a half-maximal effect (EC50) was 0.879 µM. For the molecule `COC(=O)C(Nc1ccccc1Cl)(c1cc(C)c(O)c(C)c1)C(F)(F)F` (stereo not drawn), the concentration for a half-maximal effect (EC50) is 2.5 µM. On to `Cc1ccc(-c2[nH]nc(N)c2N=Nc2ccccc2C)cc1`, for which the EC50 was 1.07 µM.

With `COc1ccc(O)c(C(=O)CC(=O)c2ccccc2C)c1`, the EC50 is 4.76 µM.

With `N#CC1=C(N)SC(N)=C(C#N)C1c1c(Cl)cccc1Cl`, the EC50 is 8.78 µM. For `COc1ccc(CCNC(=O)c2cccc(NS(=O)(=O)c3ccccc3F)c2)cc1OC` the value was > 15 µM (inactive); for `COc1ccccc1NC(=O)NCCCCc1ccccc1`, > 15 µM (inactive). For the molecule `COc1ccccc1-c1nnc(NC(=O)CCS(=O)(=O)c2ccccc2)o1`, the EC50 is > 15 µM (inactive). The figure for `COc1ccccc1-n1c(SCC(=O)Nc2ccc(C)cc2)nc(O)cc1=O` is 13.6 µM. Turning to `Nc1nc(Nc2cccc(Cl)c2)nc(NCc2ccco2)c1[N+](=O)[O-]`, the 50% effective concentration (EC50) was 7.92 µM.

In the case of `COc1cnc(-c2ccccn2)nc1Oc1ccc(Cl)c2ccccc12`, the EC50 is 0.142 µM. For `c1ccc(CN2CCN(c3nc4ccccc4c4ccccc34)CC2)cc1` the value was 5.26 µM; for `O=C(/C=C/c1ccccc1)NC(=S)NNC(=O)Cc1cccs1`, 1.47 µM. Regarding `O=C(Nc1ccc(OC(F)(F)F)cc1)C1CCCN(S(=O)(=O)c2cnc[nH]2)C1` (stereo not drawn), the EC50 was > 15 µM (inactive).

On to `Cc1cc(=O)oc2c3c(cc(OCC(=O)NC4CC4)c12)OC(C)(C)CC3`, for which the EC50 is > 15 µM (inactive). The figure for `O=[N+]([O-])c1ccc(O)c(Nc2ncnc3ccc(Br)cc23)c1` is 3.32 µM. As for `N#Cc1nc(-c2ccc(OCc3ccccc3Cl)cc2)oc1NCCCn1ccnc1`, the concentration giving a half-maximal response (EC50) was 3.27 µM. For `CC1CCN(c2ccccc2NC(=O)c2cc3ccccc3o2)CC1` the value was 11.7 µM; for `COc1cccc(/C=N/NC(=O)c2cc3c(OC)ccc(OC)c3[nH]2)c1O`, 2 µM; for `COc1ccc(Br)cc1/C=C/c1ccc2cccc(O)c2n1`, 0.138 µM. Turning to `CCOc1cccc(/C=N/NC(=S)Nc2ccccc2[N+](=O)[O-])c1O`, the EC50 is 0.095 µM. For `Cc1ccccc1C(=O)Oc1cccc(Nc2ncnc3ccccc23)c1` the value was 3.57 µM; for `O=c1cc2c(nn1Cc1ccc(Cl)cc1Cl)-c1ccccc1CC2`, 5.37 µM.

As to `O=C(c1ccccc1Cl)N1CCN(S(=O)(=O)c2cccs2)CC1`, the EC50 was > 15 µM (inactive).

Regarding `O=C(N/N=C/c1ccc([N+](=O)[O-])o1)c1cn(-c2ccccc2)nc1-c1ccc(F)cc1`, the concentration giving a half-maximal response (EC50) was 1.16 µM.

In the case of `Oc1cccc2ccc(/C=C/c3ccc(Br)s3)nc12`, the concentration for a half-maximal effect (EC50) is 1.38 µM. Turning to `COc1cccc(N2C(N)=NC(N)=NC2(C)C)c1`, the EC50 was 0.318 µM.

Regarding `Oc1ccc(CN2CCN(c3ccccc3)CC2)c2cccnc12`, the EC50 is 3.76 µM.

In the case of `O=C(N/N=C/c1ccc([N+](=O)[O-])o1)c1cc(-c2cccc(Br)c2)nc2ccccc12`, the EC50 was 0.422 µM.

In the case of `S=C(NCCSCc1ccc(Cl)c(Cl)c1)Nc1ccccc1`, the 50% effective concentration (EC50) was 3.71 µM.

On to `CC(=O)c1c(O)cc(O)c(C(C)=O)c1O`, for which the EC50 was 2.64 µM. In the case of `CC(C)(C)c1ccc(C(=O)Nc2ccc(F)cc2)s1`, the EC50 was > 15 µM (inactive). Consider `COc1ccc(C(=O)NC(=S)NNC(=O)c2c(-c3ccccc3)noc2C)cc1OC`, for which the concentration giving a half-maximal response (EC50) was 0.506 µM. The figure for `O=C(Nc1nnc(-c2ccc(Cl)cc2)o1)c1ccccc1Br` is 1.59 µM; for `Cc1cccc(N2CCN(C(=O)c3ccc4nc(N5CCCCC5)sc4c3)CC2)c1C` it is 7.63 µM; for `Oc1nc(Nc2ccc(F)cc2)sc1/C=C1\C=Nc2ccccc21` it is 8.88 µM. For `O=C(NC(c1ccccc1)c1cc(Cl)c2cccnc2c1O)c1cccnc1` (stereo not drawn) the value was 1.38 µM; for `O=C(Cn1nc(CNc2ccc(Cl)cc2)[n+]2c1CCCCC2)c1ccc(Br)cc1`, 10.8 µM.

On to `C=C1CCC2C(C)(C)[C@@H](O)CC[C@@]2(C)[C@@H]1COc1ccc2ccc(=O)oc2c1` (stereo partly drawn), for which the concentration for a half-maximal effect (EC50) is 11.6 µM. For `Oc1ccccc1C(Nc1nccs1)c1ccc2cccnc2c1O` (stereo not drawn) the value was 4.35 µM; for `Cc1ccccc1-c1cc2nc(-c3ccc([N+](=O)[O-])cc3)cc(=O)n2[nH]1`, 11.9 µM; for `O=[N+]([O-])c1cc(Cl)cc(/C=N\Nc2ccccn2)c1O`, 2.89 µM.

For `COc1ccc(/C=N/NC(=O)c2cc(C(C)(C)C)[nH]n2)cc1COc1ccc(F)cc1F`, the half-maximal effective concentration (EC50) is 7.62 µM. With `Cc1cc(C)c(NC(=O)c2oc3ccccc3c2COc2ccccc2)c(C)c1`, the EC50 was 14.8 µM.

Take `O=C(NCCS(=O)(=O)N1CCN(c2ccccc2F)CC1)C1CC(=O)N(c2ccc(F)cc2)C1` (stereo not drawn): the EC50 is > 15 µM (inactive). The figure for `O=C(c1cc(-c2ccc(Br)cc2)nc2ccccc12)N1CCN(c2ccccc2O)CC1` is 6.44 µM; for `FC(F)(F)Oc1ccc(NC(=S)Nc2ccc(OC(F)(F)F)cc2)cc1` it is 6.49 µM. With `COc1ccccc1-c1cc(=O)c2c(O)ccc([N+](=O)[O-])c2o1`, the EC50 was 2.56 µM. The figure for `c1ccc(-c2oc3ncnc(NCCCn4ccnc4)c3c2-c2ccccc2)cc1` is 8.92 µM. The figure for `CCOc1ccc(NS(=O)(=O)c2cc(NC(=O)c3ccc(C)cc3)ccc2Cl)cc1` is 3.72 µM; for `O=C(O)CSCC(=O)N(Cc1ccccc1)c1nc(-c2ccccc2)c(-c2ccccc2)s1` it is 1.58 µM; for `O=C(N/N=C/c1c[nH]c2ccccc12)c1[nH]c2ccc(Br)cc2c1-c1ccccc1` it is 2.17 µM. `CCCCc1nc2cc(C(=O)N3CCC(OCCOC)CC3)ccc2o1`: the EC50 was > 15 µM (inactive). Turning to `CC1=C(C#N)c2nc(N)c(C#N)c(C)c2/C1=C\c1ccc(C)cc1`, the EC50 is 6.18 µM. For `COc1ccc(C(NC(C)=O)c2cc(Cl)c3cccnc3c2O)cc1OC` (stereo not drawn), the half-maximal effective concentration (EC50) is 5.2 µM. Regarding `COc1ccc(C(=O)c2c(C(F)(F)F)oc3c2C(=O)c2ccccc2C3=O)cc1OC`, the EC50 was 0.746 µM.
